EC50 data for 40 compounds are collected here from US6841566B2, “Viral polymerase inhibitors” (Boehringer Ingelheim, Ltd., priority 2001, dated 2005).

The test system of this assay is Huh7 cells that stably maintain a subgenomic HCV replicon (S22.3 cell-line). Briefly: Cell based HCV RNA replication assay (S22.3 replicon cells, real-time RT-PCR). Conditions: Hepatitis C virus, Huh-7, 72 hours. On the procedure:
Huh7 cells that stably maintain a subgenomic HCV replicon were established as previously described (Lohman et al., 1999. Science 285: 110-113) and designated as the S22.3 cell-line. S22.3 cells were maintained in Dulbecco's Modified […] Medium (DMEM) supplemented with 10% FBS and 0.5 mg/mL neomycin (Standard Medium). During the assay, DMEM medium supplemented with 10% FBS, containing 0.5% DMSO and lacking neomycin was used (Assay Medium). 16 hours prior to compound addition, S22.3 cells are trypsinized and diluted to 100 000 cells/ml in Standard Medium. 100μL (10 000 cells) are distributed into each well of a 96-well plate. The plate was then incubated at 37° C. with 5% CO2 until the next day.
10 μL of test compound (in 100% DMSO) was added to 2 ml of Assay Medium for a final DMSO concentration of 0.5% and the solution was sonicated for 15 min and filtered through a […] Millipore Filter Unit. 900 μl was transferred into row A of a Polypropylene Deep-Well Titer Plate. Rows B to H, contain 400 μL aliquots of Assay Medium (containing 0.5% DMSO), and were used to prepare serial dilutions (1/2) by transferring 400 μl from row to row (no compound was included in row H).
Cell culture medium was aspirated from the 96-well plate containing the S22.3 cells. 175 μL of assay medium with the appropriate dilution of test compound was transferred from each well of the compound plate to the corresponding well of the cell culture plate (row H was used as the “No inhibition control”). The cell culture plate was incubated at 37° C. with 5% CO2 for 72 hours.
Following the 72 hour incubation period, the total cellular RNA was extracted from the S22.3 cells of the 96-well plate using the RNeasy 96 kit (Qiagen®, RNeasy Handbook. 1999.). Briefly, assay medium was completely removed from cells and 100 μL of RLT buffer (Qiagen®) containing 143 mM β-mercaptoethanol was added to each well of the 96-well cell-culture plate. The microplate was gently shaken for 20 sec. 100 μL of 70% ethanol was then added to each microplate well, and mixed by pipetting. The lysate was removed and applied to the wells of a RNeasy 96 (Qiagen®) plate that was placed on top of a Qiagen® Square-Well Block. The RNeasy 96 plate was sealed with tape and the Square-Well Block with the RNeasy 96 plate was loaded into the holder and placed in a rotor bucket of a 4K15C centrifuge. The sample was centrifuged at 6000 rpm (˜5600×g) for 4 min at room temperature. The tape was removed from the plate and 0.8 ml of Buffer RW1 (Qiagen® RNeasy 96 kit) was added to each well of the RNeasy 96 plate. The RNeasy 96 plate was sealed with a new piece of tape and centrifuged at 6000 rpm for 4 min at room temperature. The RNeasy 96 plate was placed on top of another clean Square-Well Block, the tape removed and 0.8 ml of Buffer RPE (Qiagen® RNeasy 96 kit) was added to each well of the RNeasy 96 plate. The RNeasy 96 plate was sealed with a new piece of tape and centrifuged at 6000 rpm for 4 min at room temperature. The tape was removed and another 0.8 ml of Buffer RPE (Qiagen® RNeasy 96 kit) was added to each well of the RNeasy 96 plate. The RNeasy 96 plate was sealed with a new piece of tape and centrifuged at 6000 rpm for 10 min at room temperature. Tape was removed, the RNeasy 96 plate was placed on top of a rack containing 1.2-mL collection microtubes. The RNA was eluted by adding 50 μL of RNase-free water to each well, sealing plate with a new piece of tape and incubated for 1 min at room temperature. The plate was then centrifuged at 6000 rpm for 4 min at room temperature. The elution step was repeated with a second volume of 50 μl RNase-free water. The microtubes with total cellular RNA are stored at −70° C.
RNA was quantified on the STORM® system (Molecular Dynamics®) using the RiboGreen® RNA Quantification Kit (Molecular Probes®). Briefly, the RiboGreen reagent was diluted 200-fold in TE (10 mM Tris-HCl pH=7.5, 1 mM EDTA). Generally, 50 μL of reagent was diluted in 10 mL TE. […]

In turn, `CC(NC(=O)c1ccc2c(c1)nc(-c1ccoc1)n2C1CCCCC1)C(=O)Nc1ccc(/C=C/C(=O)O)cc1` (stereo not shown) [compound 1054] gave an EC50 of 5 to 50 µM.

Consider `Cn1c(C(=O)O)cc2cc(NC(=O)C3(NC(=O)c4ccc5c(c4)nc(-c4ccoc4)n5C4CCCCC4)CCCNC3)ccc21` (stereo not shown) [compound 1104], for which the EC50 was at most 5 µM.

The compound `CC1CCCC(C)C1n1c(-c2ccccn2)nc2cc(C(=O)NC3(C(=O)Nc4ccc(C=CC(=O)O)cc4)CCCC3)ccc21` (mixture of isomers) [compound 2036] displayed an EC50 of at most 5 µM.

On to `CC(NC(=O)c1ccc2c(c1)nc(-c1ccoc1)n2C1CCCCC1)C(=O)Nc1ccc(C(=O)O)cc1` (stereo not shown) [compound 1053], for which the EC50 is 5 to 50 µM.

`CCC[C@@H](NC(=O)c1ccc2c(c1)nc(-c1ccoc1)n2C1CCCCC1)C(=O)Nc1ccc(/C=C/C(=O)O)cc1` [compound 1076] had an EC50 of at most 5 µM.

With `C[C@H](NC(=O)c1ccc2c(c1)nc(-c1ccoc1)n2C1CCCCC1)C(=O)Nc1ccc(/C=C/C(=O)O)cc1` [compound 1056], the EC50 fell in the range of 5 to 50 µM.

Regarding `O=C(NC1(C(=O)Nc2ccc(-c3ccc(C(=O)O)o3)cc2)CCCC1)c1ccc2c(c1)nc(-c1ccoc1)n2C1CCCCC1` [compound 1080], the EC50 was at most 5 µM.

Consider `O=C(O)/C=C/c1ccc(NC(=O)C2(NC(=O)c3ccc4c(c3)nc(-c3ccccc3)n4C3CCCCC3)CCCC2)cc1` [compound 2006], for which the EC50 was at most 5 µM.

As for `CC(NC(=O)c1ccc2c(c1)nc(-c1ccoc1)n2C1CCCCC1)C(=O)Nc1ccc(-c2ccc(C(=O)O)o2)cc1` (stereo not shown) [compound 1060], the EC50 lay within 5 to 50 µM.

`Cc1nc(C(=O)O)sc1-c1ccc(NC(=O)C2(NC(=O)c3ccc4c(c3)nc(-c3ccoc3)n4C3CCCCC3)CCCC2)cc1` [compound 1091] came in with an EC50 of at most 5 µM.

Compound `C[C@@H](NC(=O)c1ccc2c(c1)nc(-c1ccoc1)n2C1CCCCC1)C(=O)Nc1ccc(/C=C/C(=O)O)cc1` [compound 1057] registered an EC50 of 5 to 50 µM.

Regarding `O=C(O)/C=C/c1ccc(NC(=O)C2(NC(=O)c3ccc4c(c3)nc(-c3ccoc3)n4C3CCCCC3)CCC2)cc1` [compound 1094], the EC50 is at most 5 µM.

Compound `O=C(O)C=Cc1ccc(NC(=O)C2(NC(=O)c3ccc4c(c3)nc(-c3ccccn3)n4C3CC4CCC3C4)CCCC2)cc1` (mixture of isomers) [compound 2020] came in with an EC50 of at most 5 µM.

In the case of `O=C(O)/C=C/c1ccc(NC(=O)C2(NC(=O)c3ccc4c(c3)nc(-c3ccccn3)n4C3CCCCC3)CCCC2)cc1` [compound 2005], the EC50 was at most 5 µM.

On to `C[C@@H](NC(=O)c1ccc2c(c1)nc(-c1ccccn1)n2C1CCCCC1)C(=O)Nc1ccc(/C=C/C(=O)O)cc1` [compound 2002], for which the EC50 was at most 5 µM.

Consider `Cc1cc(NC(=O)C2(NC(=O)c3ccc4c(c3)nc(-c3ccoc3)n4C3CCCCC3)CCCC2)ccc1/C=C/C(=O)O` [compound 1088], for which the EC50 was at most 5 µM.

The compound `CC1CCCC(C)C1n1c(-c2cccs2)nc2cc(C(=O)NC3(C(=O)Nc4ccc(C=CC(=O)O)cc4)CCCC3)ccc21` (mixture of isomers) [compound 2035] had an EC50 of at most 5 µM.

With `O=C(O)/C=C/c1ccc(NC(=O)CNC(=O)c2ccc3c(c2)nc(-c2ccoc2)n3C2CCCCC2)cc1` [compound 1079], the EC50 fell in the range of 5 to 50 µM.

`O=C(O)/C=C/c1ccc(NC(=O)C2(NC(=O)c3ccc4c(c3)nc(-c3ccoc3)n4C3CCCCC3)CCCC2)cc1` [compound 1071] returned an EC50 of at most 5 µM.

As to `O=C(O)C=Cc1ccc(NC(=O)C2(NC(=O)c3ccc4c(c3)nc(-c3cccs3)n4C3CC4CCC3C4)CCCC2)cc1` (mixture of isomers) [compound 2019], the EC50 is at most 5 µM.

As for `CCn1c(C(=O)O)cc2cc(NC(=O)C3(NC(=O)c4ccc5c(c4)nc(-c4ccoc4)n5C4CCCCC4)CCCC3)ccc21` [compound 1085], the EC50 was at most 5 µM.

For the compound `O=C(NC1(C(=O)Nc2ccc3[nH]c(C(=O)O)cc3c2)CCCC1)c1ccc2c(c1)nc(-c1ccoc1)n2C1CCCCC1` [compound 1098], the EC50 lay in the range of 5 to 50 µM.

`CCN1CCC(NC(=O)c2ccc3c(c2)nc(-c2ccoc2)n3C2CCCCC2)(C(=O)Nc2ccc(-c3nc(C(N)=O)cs3)cc2)CC1` [compound 1109] returned an EC50 of at most 5 µM.

On to `O=C(NC1(C(=O)Nc2ccc3nc(S)sc3c2)CCCC1)c1ccc2c(c1)nc(-c1ccoc1)n2C1CCCCC1` [compound 1078], for which the EC50 was at most 5 µM.

In turn, `O=C(O)C=Cc1ccc(NC(=O)C2(NC(=O)c3ccc4c(c3)nc(-c3ccoc3)n4C3CC4CCC3C4)CCCC2)cc1` (mixture of isomers) [compound 2021] returned an EC50 of at most 5 µM.

In the case of `C[C@@H]1CCCC[C@H]1n1c(-c2ccccn2)nc2cc(C(=O)NC3(C(=O)Nc4ccc(/C=C/C(=O)O)cc4)CCCC3)ccc21` (racemic) [compound 2044], the EC50 was at most 5 µM.

`O=C(O)/C=C/c1ccc(NC(=O)C2(NC(=O)c3ccc4c(c3)nc(-c3ccoc3)n4C3CCCCC3)CC2)cc1` [compound 1070, (E)-3-(4-{[1-(1-{[1-(1-Cyclohexyl-2-furan-3-yl-1H-benzoimidazol-5-yl)-methanoyl]-amino}-cyclopropyl)-methanoyl]-amino}-phenyl)-acrylic acid] showed a concentration for a half-maximal effect (EC50) of 5 to 50 µM.

On to `O=C(O)/C=C/c1ccc(NC(=O)C2(NC(=O)c3ccc4c(c3)nc(-c3ccoc3)n4C3CCCC3)CCCC2)cc1` [compound 2013], for which the EC50 lay within 5 to 50 µM.

Compound `C[C@@H](NC(=O)c1ccc2c(c1)nc(-c1ccccc1)n2C1CCCCC1)C(=O)Nc1ccc(/C=C/C(=O)O)cc1` [compound 2003] came in with a concentration giving a half-maximal response (EC50) of 5 to 50 µM.

For the compound `O=C(O)/C=C/c1ccc(NC(=O)C2(NC(=O)c3ccc4c(c3)nc(-c3cccs3)n4C3CCCCC3)CCCC2)cc1` [compound 2050], the EC50 is at most 5 µM.

In the case of `C/C(=C\c1ccc(NC(=O)C2(NC(=O)c3ccc4c(c3)nc(-c3ccoc3)n4C3CCCCC3)CCCC2)cc1)C(=O)O` [compound 1083], the EC50 is at most 5 µM.

As to `O=C(O)/C=C/c1ccc(NC(=O)C2(NC(=O)c3ccc4c(c3)nc(-c3ccoc3)n4C3CCCCC3)CCCCC2)cc1` [compound 1072], the EC50 is at most 5 µM.

In turn, `O=C(O)/C=C/c1ccc(NC(=O)C2(NC(=O)c3ccc4c(c3)nc(-c3ccccn3)n4C3CCCC3)CCCC2)cc1` [compound 2012] returned an EC50 of 5 to 50 µM.

`O=C(O)/C=C/c1ccc(NC(=O)C2(NC(=O)c3ccc4c(c3)nc(-c3ccco3)n4C3CCCCC3)CCCC2)cc1` [compound 2049] came in with an EC50 of at most 5 µM.

With `CCN1CCC(NC(=O)c2ccc3c(c2)nc(-c2ccoc2)n3C2CCCCC2)(C(=O)Nc2ccc(-c3nc(C(=O)O)cs3)cc2)CC1` [compound 1108], the EC50 is at most 5 µM.

Compound `Cc1cc(=O)oc2cc(NC(=O)[C@@H](C)NC(=O)c3ccc4c(c3)nc(-c3ccoc3)n4C3CCCCC3)ccc12` [compound 1026] had an EC50 of at most 5 µM.

The compound `CC(C)(NC(=O)c1ccc2c(c1)nc(-c1ccoc1)n2C1CCCCC1)C(=O)Nc1ccc(/C=C/C(=O)O)cc1` [compound 1093] yielded an EC50 of at most 5 µM.

Regarding `CC(NC(=O)c1ccc2c(c1)nc(-c1ccoc1)n2C1CCCCC1)C(=O)Nc1cccc(-c2cccc(N)c2)c1` (stereo not shown) [compound 1022], the EC50 fell in the range of 5 to 50 µM.

For the compound `Cn1cccc1-c1nc2cc(C(=O)NC3(C(=O)Nc4ccc(/C=C/C(=O)O)cc4)CCCC3)ccc2n1C1CCCCC1` [compound 2048], the EC50 is at most 5 µM.

`Cc1c(C(=O)O)sc2ccc(NC(=O)C3(NC(=O)c4ccc5c(c4)nc(-c4ccoc4)n5C4CCCCC4)CCCC3)cc12` [compound 1099] had an EC50 of at most 5 µM.
